Measurements published in US20200131473A1, “METHOD OF GENERATING 2 CELL-LIKE STEM CELLS” (IFOM FONDAZIONE ISTITUTO FIRC DI ONCOLOGIA MOLECOLARE, priority 2017, published 2020).

How the values were obtained:
mESC lines E14 and R1 = assay: Whole gene expression profiling (microarray) of mESC lines E14 and R1; format: cell-based, mouse
Procedure: The quality of total RNA was first assessed using an Agilent Bioanalyzer 2100 (Agilent Technologies, Palo Alto, Calif.). Biotin-labeled cDNA targets were synthesized starting from 150 ng of total RNA. Double stranded cDNA synthesis and related cRNA was performed with GeneChip® WT Plus Kit (Affymetrix, Santa Clara, Calif.). With the same kit was synthesized the sense strand cDNA before to be fragmented and labeled. […] Each eukaryotic GeneChip® probe array contains probe sets for several B. subtilis genes that are absent in the samples analyzed (lys, phe, thr, and dap). This Poly-A RNA Control Kit contains in vitro synthesized, polyadenylated transcripts for these B. subtilis genes that are pre-mixed at staggered concentrations to allow GeneChip® probe array users to assess the overall success of the assay.
Hybridization was performed using the GeneAtlas™ Hybridization, Wash and Stain Kit. […] Targets were diluted in hybridization buffer at a concentration of 0.05 μg/ul, denatured at 99° C. for 5 minutes, incubated at 45° C. for 5 minutes and centrifuged at 5,000 rpm for 1 minute. The Array Strip is then moved to a hybridization tray, which contains the hybridization cocktails. A single Gene 2.1 PEG Array Strip is hybridized with four different biotin-labeled targets. Hybridizations were performed for 20 hours at 48° C. in the GeneAtlas™ Hybridization Station. The Array Strips were washed and stained in the GeneAtlas™ Personal Fluidics Station. At the end of this procedure the array strips were placed into the imaging tray, which contains the Array Holding buffer.
The array strips were imaged using the GeneAtlas™ Imaging Station. Affymetrix GeneAtlas™ Command Console software was used to acquire the Array Strip images and […].
The CAMERA gene set enrichment p-values were calculated using the limma package and the camera function 30.
In the GSVA based enrichment analysis, we used the MsigDB gene sets, and transformed the individual gene expression values into gene set expression values with the GSVA package 32. We calculated the gene set differential expression as in the gene level differential expression analysis, only skipping the RMA normalization step.

E14 mouse ESCs = assay: Drop-seq single cell transcriptional profiling of E14 ESCs; format: cell-based
Procedure: ESCs from CNTL, APH (6 μM) and APH-ATRi experimental conditions were resuspended in PBS-BSA and processed with a microfluidic device according to the DropSeq Laboratory Protocol V3.1 from McCarroll's Lab website [http://mccarrolllab.com/dropseq/l]. For each condition, 3 distinct aliquots of collected emulsion, each containing 4000 beads underwent reverse transcription (RT) and fragment library preparation using Illumina Nextera XT Library Prep Kit. A distinct barcode was used for each library to allow subsequent demultiplexing of sequencing reads. mRNA sequencing was performed using an Illumina HiSeq2000 instrument, library fragments were sequenced at 50 base pairs (bp) in PE mode. Sequencing reads were aligned to UCSC Mouse Reference Genome version mm10 using STAR (version 2.5.3a), and processed according to DropSeq Alignment Cookbook V1.2 to generate a digital expression matrix of STAMPs (cells) for each experimental condition, which was then furtherly analyzed in the RStudio environment (R version 3.3.3) using Seurat package V2.0 from Satija Lab [http://satijalab.org/seurat/]. Seven-hundred most expressed cells were selected in each condition; genes expressed in less than 3 cells and cells expressing less than 200 genes were pruned from the dataset. Data from CNTL and APH conditions (1399 cells) or CNTL, APH and APH-ATRi conditions (2096 cells) were merged to generate two datasets, which were log normalised and scaled. Expression mean and variance to mean ratio (Log VMR>0.5) were used to estimate data dispersion and select variable genes across the dataset. Respectively 2614 and 2768 genes (in the 2-conditions and 3-conditions datasets) were used in principal component analysis (PCA) to identify the appropriate number of components to include in data modeling. Top 15 components were selected to explain dataset complexity. A shared nearest neighbor (SNN) graph and smart local moving algorithm was used to perform cells clustering; t-SNE (t-stochastic neighbour embedding) analysis was used to reduce (PCA) dimensionality and generate plots of cells distribution.

Structure (SMILES) | downregulated genes (mESC lines E14 and R1; APH treatment, E14 and R1) | upregulated genes with more than two-fold changes (mESC lines E14 and R1; APH treatment, E14 and R1) | DEGs overlapping with totipotency specific genes (mESC lines E14 and R1; APH treatment, 43 out of 201, compared with published datasets) | two placenta-related gene categories (MSigDB gene-sets analysis) (mESC lines E14 and R1; APH vs CNTL) | small cell population (cluster 4, 2C-like) in single cell profiling (E14 mouse ESCs; E14 ESCs in LIF plus 2i, APH 6 μM) | APH induced 2C-like genes which reverted their expression level (mESC lines E14 and R1; 31 out of 43, inhibitor added after APH) | two placenta-related gene categories upon ATR inhibition (mESC lines E14 and R1; APH plus inhibitor) | DNA repair signaling pathway (geneset enrichment analysis) (mESC lines E14 and R1; inhibitor added after APH-induced replication stress) | number of APH-induced 2C-like gene expressing cells (Zscan4d+, Gm8300+) (E14 mouse ESCs; APH plus ATRi) | number of RS-induced cells in the newly emerging cluster (E14 mouse ESCs; APH plus ATRi)
C[C@@]1(CO)[C@H](O)CC[C@@]2(C)[C@H]1CC[C@H]1C[C@@H]3C[C@@]12CC[C@]3(O)CO [APH, aphidicolin] | 21 genes | 193 genes | 17% | strong and highly significant enrichment | significantly increased |  |  |  |  | 
CNCc1ccc(-c2cc(-c3nc(-c4ccc(S(=O)(=O)C(C)C)cc4)cnc3N)on2)cc1 [VE 822] |  |  |  |  |  | 72% | robustly suppressed | robust silencing | marked reduction | significantly reduced
